Data set [1] relates to imidazoline I2 receptors (I2-IR). Set-up: method as in ref 32, 33 = [32]; 32. Escolano C. Pallás M. Griñán-Ferré C. Abás S. Callado L.-F. García-Sevilla J.A. Synthetic I 2 Imidazoline Receptor Ligands for Prevention or Treatment of Human Brain Disorders Patent WO 2019/12185 || [33]; PMID 32150414; doi:10.1021/acs.jmedchem.9b02080; 33. Abás S. Rodríguez-Arévalo S. Bagán A. Griñán-Ferré C. Vasilopoulou F. Brocos-Mosquera I. Muguruza C. Pérez B. Molins E. Luque F.J. Bicyclic α-Iminophosphonates as High Affinity Imidazoline I 2 Rec. Particulars: cited from earlier work.

Data set [2] is described as follows: Metabolic profiling in human liver microsomes (LC-HRMS). The class given is in vitro ADME. The procedure:
(§1) The objective of the study is to evaluate the formation of the main metabolites from B06 in HLM incubations and MLM incubations preceding the in vivo metabolic study, using these same incubations to identify the possible metabolites. […] Reactions without NADPH were also incubated to rule out non-NADPH metabolism or chemical instability in the incubation buffer. Verapamil was included as positive control to monitor incubation course. All reactions were terminated using 60 µL of ice-cold acetonitrile at 0, 5, 15, 30, 45, and 60 min. The plates were centrifugated at 3500 rpm for 15 min. All experiments were conducted in triplicates. Samples were analysed by LC-HMRS in positive ionization mode. Compound incubations without NADPH and compound reference standard were used as interference control for each incubation sample.
Metabolic profiling of B06 in human liver microsomes
The equipment used for the analysis was an Agilent 1290 Infinity UHPC, ABSciex 5600 QTOF Mass Spectrometer, Metabolite Pilot V 1.5 Sofware.
Method: ionization mode, electrospray positive; acquisition mode, TOF MS with IDA MS/MS; […]
All the tentative identified metabolites have been evaluated using of a score (40 value). This score depend on mass defect, isotope pattern, mass a ccur a cy and MS/MS. In all the cases the score was equal or greater than 68%.
Table S9. Metabolite time course in HLM incubations for B06
Peak Description Time Formula m/z Mass R.T. Peak % %
ID incubation error (min) Area Area Score […]

Data set [3] is described as follows: Metabolic profiling in mouse liver microsomes (LC-HRMS). The class given is in vitro ADME. The procedure:
as §1
Metabolic profiling of B06 in mouse liver microsomes
The equipment used for the analysis wa s an Agilent 1290 Infinity UHPC, ABSciex 5600 QTOF Mass Spectrometer, Metabolite Pilot V 1.5 Sofware.
Method: ionization mode, electrospray positive; acquisition mode, TOF MS with IDA MS/MS; colum, Atlantis T3 C18, 2.1 x 15 mm, 3 μ m; mobile phase, water:acetonitrile: 0.1% formic acid; flow […]
All the tentative identified metabolites have been evaluated using of a score (40 value). This score depend on mass defect, isotope pattern, mass accuracy and MS/MS. In all the cases the score was equal or greater than 68%.
All analytical determinations of B06 were performed in according to the recommendations of the […]
Table S10. Metabolite time course in MLM incubations for B06
Peak Description Time Formula m/z Mass R.T. Peak Area % %
ID incubation error (min) Area Score
1 Safety testing of drug metabolites. Guidance for industry. U.S. Department of Health and Human Services Food and Drug Administration Center for Drug Evaluation and Research (CDER) March 2020 Pharmacology/Toxicology. https://www.fda.gov/regulatory‐information/search‐fda‐guidance‐ documents/safety‐testing‐drug‐metabolites

The test system of the next data set is SAMP8 murine model. Particulars: cited from earlier work.

`c1ccc2c(c1)OCC(C1=NCCN1)O2` (stereo not shown) [idazoxan]: the “ratio of I2/α2” value in data set [1] (I2-IR ([3H]2-BFI) versus α2-AR ([3H]RX821002), human frontal cortex) is on record as “non I2/α2 selectivity”. For the same compound, the pKi in data set [1] (membranes of post mortem human frontal cortex, against [3H]2-BFI) is given as 7.41 ± 0.63.

`CCOP(=O)(O)[C@]1(c2ccccc2)N=C[C@H]2C(=O)N(c3ccc(F)c(Cl)c3)C(=O)[C@H]21` [Compound 1, ethyl hydrogen [(1R,3aS,6aS)-5-(3-chloro-4-fluorophenyl)-4,6-dioxo-1-phenyl-1,3a,4,5,6,6a-hexahydropyrrolo[3,4-c]pyrrol-1-yl]phosphonate]: the “% Area of metabolite in chromatogram” value in data set [2] (HLM incubation of B06, 15 min) was 8.4%; in data set [2] (HLM incubation of B06, 30 min) it was 17.8%; in data set [2] (HLM incubation of B06, 45 min) it was 26.2%; in data set [2] (HLM incubation of B06, 60 min) it was 36%; in data set [2] (HLM incubation of B06, 60 min, listed as M1), 36.0%; in data set [3] (MLM incubation of B06, 5 min) it was 10.7%. Moreover, the “% Area of metabolite in chromatogram” value is recorded as 30.9% in data set [3] (MLM incubation of B06, 15 min); 60.9% in data set [3] (MLM incubation of B06, 30 min); 81.6% in data set [3] (MLM incubation of B06, 45 min); 88.9% in data set [3] (MLM incubation of B06, 60 min).

As for `CCOP(=O)(OCC)C1(c2ccccc2)N=CN(Cc2ccc(F)c(Cl)c2)C1(C)C` (stereo not shown) [MCR5], the “effect on cognition and hallmarks” value in the data set on SAMP8 murine model was “cognitive improvement and amelioration of hallmarks”.

Values taken from publication PMC9141032 (International Journal of Molecular Sciences, 2022).
